Literature values, collected in paper PMC3178464 (Bioorganic & medicinal chemistry, 2009).

Tested on: ER

17α-ethynylestradiol [EE2]
affinity for ER relative to E2: nearly three-fold higher affinity
